Assay results published in patent publication US9783536B2, “Nitrogen-containing heterocyclic compound or salt thereof” (FUJIFILM Corporation, priority 2013, dated 2017).
Structures can show the parent of a compound that is named as a salt. Where two headings read alike, the source gives them in different places.

How the values were obtained:
[1] = molecular target: T1, GST fusion human ERK2 protein (Homo sapiens, UniProt P28482); test: ERK2 enzyme assay (1); type: biochemical; conditions: read-out: ERK2 enzyme inhibitory activity (1)
T1 construct: purchased Carna Biosciences, Inc; host or cells: E. coli expression system
In short: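 Enzyme (2.5 nmol/L, E. coli-expressed) preincubated with compound 15 min at room temperature in HEPES/MgCl2/DTT/Brij35 buffer, pH 7.5; reaction with 4.25 μmol/L FL-Peptide 8 and 43.1 μmol/L ATP for 120 min at 25 °C. Phosphorylated peptide fraction quantified by mobility-shift separation after EDTA stop; IC50 calculated.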

human PI3Kα protein = molecular target: T2, human PI3Kα protein (Homo sapiens, UniProt P42336); test: PI3Kα enzyme assay (ADP-Glo); type: biochemical; conditions: read-out: PI3Kα enzyme inhibitory activity
T2 construct: purchased Carna Biosciences, Inc; host or cells: baculovirus expression system
In short: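 Biotinylated human PI3Kα (baculovirus-expressed, 4.5 nmol/L) pre-incubated 15 min with compound in Tris-HCl pH 7.5, MgCl2, BSA; reaction 60 min at 25° C with 50 μmol/L PIP2 and 100 μmol/L ATP final. ADP quantified by ADP-Glo luminescence; IC50 calculated.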

[2] = 2.5 nmol/L ERK2, ATP 43.1 μmol/L
[3] = 4.5 nmol/L PI3Kα, PIP2 50 μmol/L, ATP 100 μmol/L

T1 sequence (P28482 whole entry, the tested form may be a part): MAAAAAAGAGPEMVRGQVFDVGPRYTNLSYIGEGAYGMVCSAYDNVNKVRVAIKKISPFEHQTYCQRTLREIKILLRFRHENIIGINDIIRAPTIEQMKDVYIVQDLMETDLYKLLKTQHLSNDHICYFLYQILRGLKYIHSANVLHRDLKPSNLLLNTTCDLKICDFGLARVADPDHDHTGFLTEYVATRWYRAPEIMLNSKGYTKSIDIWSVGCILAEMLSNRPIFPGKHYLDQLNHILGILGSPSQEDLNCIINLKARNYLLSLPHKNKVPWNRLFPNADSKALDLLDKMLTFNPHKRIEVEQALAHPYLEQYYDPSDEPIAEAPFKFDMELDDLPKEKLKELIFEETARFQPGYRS
T2 sequence (P42336 whole entry): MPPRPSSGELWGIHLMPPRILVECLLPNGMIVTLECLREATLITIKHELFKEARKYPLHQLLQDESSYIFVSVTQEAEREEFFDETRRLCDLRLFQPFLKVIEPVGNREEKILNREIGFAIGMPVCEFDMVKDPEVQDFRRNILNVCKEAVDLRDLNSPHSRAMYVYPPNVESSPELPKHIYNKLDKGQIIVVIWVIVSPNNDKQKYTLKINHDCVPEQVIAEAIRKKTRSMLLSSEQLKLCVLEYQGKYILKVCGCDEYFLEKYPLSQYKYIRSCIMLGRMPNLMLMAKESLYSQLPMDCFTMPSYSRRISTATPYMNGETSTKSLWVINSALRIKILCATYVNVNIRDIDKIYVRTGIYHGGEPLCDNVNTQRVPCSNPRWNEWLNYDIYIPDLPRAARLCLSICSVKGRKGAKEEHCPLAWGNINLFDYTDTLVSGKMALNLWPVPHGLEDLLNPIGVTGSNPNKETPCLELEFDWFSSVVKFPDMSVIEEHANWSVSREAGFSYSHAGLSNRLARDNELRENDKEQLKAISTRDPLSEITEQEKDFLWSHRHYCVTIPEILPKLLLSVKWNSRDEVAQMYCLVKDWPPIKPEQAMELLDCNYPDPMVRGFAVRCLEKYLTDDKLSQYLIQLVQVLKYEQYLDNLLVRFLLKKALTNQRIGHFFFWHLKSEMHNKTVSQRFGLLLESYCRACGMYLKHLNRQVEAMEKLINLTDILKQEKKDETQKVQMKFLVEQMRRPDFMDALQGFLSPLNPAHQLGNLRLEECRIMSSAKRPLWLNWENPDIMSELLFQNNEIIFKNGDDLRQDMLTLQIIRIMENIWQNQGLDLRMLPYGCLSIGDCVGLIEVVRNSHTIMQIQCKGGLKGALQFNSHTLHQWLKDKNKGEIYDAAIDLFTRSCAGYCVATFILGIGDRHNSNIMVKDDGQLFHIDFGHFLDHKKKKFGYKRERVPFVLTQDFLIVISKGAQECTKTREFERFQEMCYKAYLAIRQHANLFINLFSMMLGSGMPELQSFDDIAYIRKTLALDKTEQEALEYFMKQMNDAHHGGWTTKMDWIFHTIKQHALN
T2 sequence (P27986 whole entry partner): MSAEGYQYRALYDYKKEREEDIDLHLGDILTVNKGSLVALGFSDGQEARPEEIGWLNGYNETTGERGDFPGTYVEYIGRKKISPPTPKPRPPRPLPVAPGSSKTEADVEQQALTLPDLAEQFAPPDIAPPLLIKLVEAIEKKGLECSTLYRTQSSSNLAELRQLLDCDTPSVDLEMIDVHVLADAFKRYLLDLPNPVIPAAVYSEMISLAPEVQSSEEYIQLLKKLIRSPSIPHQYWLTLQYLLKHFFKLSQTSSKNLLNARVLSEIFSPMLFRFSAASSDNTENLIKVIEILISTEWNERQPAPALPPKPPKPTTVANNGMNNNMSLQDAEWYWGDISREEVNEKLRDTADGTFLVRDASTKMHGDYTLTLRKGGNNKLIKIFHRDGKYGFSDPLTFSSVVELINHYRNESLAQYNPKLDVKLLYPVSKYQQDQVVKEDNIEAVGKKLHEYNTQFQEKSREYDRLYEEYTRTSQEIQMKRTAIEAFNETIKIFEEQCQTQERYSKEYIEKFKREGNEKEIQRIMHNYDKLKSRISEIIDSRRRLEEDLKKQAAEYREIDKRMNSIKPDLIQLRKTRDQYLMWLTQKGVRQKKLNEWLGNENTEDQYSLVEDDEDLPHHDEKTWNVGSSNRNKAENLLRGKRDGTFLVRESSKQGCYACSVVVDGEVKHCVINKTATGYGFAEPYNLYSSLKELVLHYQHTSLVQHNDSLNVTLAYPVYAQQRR

| Structure (SMILES) | IC50 [1, 2] [µM] | IC50 (human PI3Kα protein; [3]) [µM] | IC50 ([1]; ERK2 enzyme assay (1)) [µM] | IC50 (human PI3Kα protein) [µM] |
| --- | --- | --- | --- | --- |
| COCCOc1cnc2ccc(Nc3nnc(C4CCCC4)s3)nc2c1 [Example 0041, 5-cyclopentyl-N-(7-(2-methoxyethoxy)-1,5-naphthyridin-2-yl)-1,3,4-thiadiazole-2-amine hydrochloride] | < 1 | 10 to 50 |  |  |
| c1nnc(Nc2ccc3ncc(-c4cnn(CCN5CCOCC5)c4)cc3n2)s1 [Example 0002] | < 1 | < 1 |  |  |
| Cn1cc(-c2cnc3ccc(Nc4nnc(Cc5ccccc5)s4)nc3c2)cn1 [Example 0165, 5-benzyl-N-(7-(1-methyl-1H-pyrazol-4-yl)-1,5-naphthyridin-2-yl)-1,3,4-thiadiazole-2-amine] | < 1 | 10 to 50 |  |  |
| CN(C)Cc1nnc(Nc2ccc3ncc(-c4cnn(C)c4)cc3n2)s1 [Example 0166, 5-((Dimethylamino)methyl)-N-(7-(1-methyl-1H-pyrazol-4-yl)-1,5-naphthyridin-2-yl)-1,3,4-thiadiazole-2-amine] | < 1 | 1 to 10 |  |  |
| O=C(c1ccc(Nc2cnc3ccc(Nc4nnc(C5CCCC5)s4)nc3c2)cc1)N1CCOCC1 [Example 0104] | < 1 | 1 to 10 |  |  |
| CC(C)c1nnc(Nc2ccc3nccc(-c4cn[nH]c4)c3n2)s1 [Example 0284] |  |  | 1 to 10 | < 1 |
| CC(C)c1nnc(Nc2ccc3nccc(-c4ccn[nH]4)c3n2)s1 [Example 0285] |  |  | < 1 | < 1 |
| CC(C)c1nnc(Nc2ccc3ncc(-c4cn(C)nc4C(C)C)cc3n2)s1 [Example 0125] | < 1 | < 1 |  |  |
| COc1ccc(-c2cnc3ccc(Nc4nc(C)cs4)nc3c2)cc1OC [Example 0024, N-(7-(3,4-dimethoxyphenyl)-1,5-naphthyridin-2-yl)-4-methylthiazole-2-amine] | 10 to 50 | 1 to 10 |  |  |
| CCCCCc1nnc(Nc2ccc3ncc(-c4cnn(C)c4)cc3n2)[nH]1 [Example 0299, 7-(1-methyl-1H-pyrazol-4-yl)-N-(5-pentyl-4H-1,2,4-triazol-3-yl)-1,5-naphthyridine-2-amine] |  |  | < 1 | 10 to 50 |
| OCCN1CCN(c2cnc3ccc(Nc4nnc(C5CCCC5)s4)nc3c2)CC1 [Example 0046, 2-(4-(6-((5-cyclopentyl-1,3,4-thiadiazol-2-yl)amino)-1,5-naphthyridin-3-yl)piperazin-1-yl)ethanol hydrochloride] | < 1 | 1 to 10 |  |  |
| c1cc(-c2ccnc3ccc(Nc4nncs4)nc23)ccn1 [Example 0275] |  |  | < 1 | < 1 |
| c1nc2ccc(Nc3ncc(C4CCCC4)s3)nc2cc1-c1cnn(CCCN2CCCC2)c1 [Example 0126, 5-cyclopentyl-N-(7-(1-(3-(pyrrolidin-1-yl)propyl)-1H-pyrazol-4-yl)-1,5-naphthyridin-2-yl)thiazole-2-amine] | < 1 | < 1 |  |  |
| CC(C)c1cnnc(Nc2ccc3ncc(-c4cn(C)nc4CO[Si](C)(C)C(C)(C)C)cc3n2)c1 [Example 0393, 7-(3-(((tert-butyldimethylsilyl)oxy)methyl)-1-methyl-1H-pyrazol-4-yl)-N-(5-isopropylpyridazin-3-yl)-1,5-naphthyridine-2-amine] |  |  | < 1 | 1 to 10 |
| CC(C)(C)c1nnc(Nc2ccc3ncc(-c4cnn(CCCN5CCCC5)c4)cc3n2)s1 [Example 0366] |  |  | < 1 | < 1 |
| CC(C)c1nnc(Nc2ccc3ncc(-c4cnn(C)c4-c4cnn(C)c4)cc3n2)s1 [Example 0476, N-(7-(1′,2-dimethyl-1′H,2H-[3,4′-bipyrazole]-4-yl)-1,5-naphthyridin-2-yl)-5-isopropyl-1,3,4-thiadiazole-2-amine] |  |  | < 1 | < 1 |
| COc1ccc(-c2cnc3ccc(Nc4ncc(C)s4)nc3c2)cc1OC [Example 0022, N-(7-(3,4-dimethoxyphenyl)-1,5-naphthyridin-2-yl)-5-methylthiazole-2-amine] | 10 to 50 | 1 to 10 |  |  |
| CC(C)(C)OC(=O)N1CCN(CCn2cc(-c3cnc4ccc(Nc5nnc(S(=O)(=O)Nc6ccccc6)s5)nc4c3)cn2)CC1 [Example 0180, tert-Butyl 4-(2-(4-(6-((5-(N-phenylsulfamoyl)-1,3,4-thiadiazol-2-yl)amino)-1,5-naphthyridin-3-yl)-1H-pyrazol-1-yl)ethyl)piperazine-1-carboxylate] | < 1 | 1 to 10 |  |  |
| COc1ccccc1Nc1ccnc2ccc(Nc3nnc(C(C)C)s3)nc12 [Example 0011] | 1 to 10 | < 1 |  |  |

Now from value to molecule:

| IC50 [1, 2] [µM] | IC50 (human PI3Kα protein; [3]) [µM] | IC50 ([1]; ERK2 enzyme assay (1)) [µM] | IC50 (human PI3Kα protein) [µM] | Structure (SMILES) |
| --- | --- | --- | --- | --- |
| < 1 | < 1 |  |  | CC(C)c1nnc(Nc2ccc3nccc(Nc4ccncc4)c3n2)s1 [Example 0004, N^2-(5-isopropyl-1,3,4-thiadiazol-2-yl)-N^8-(pyridin-4-yl)-1,5-naphthyridine-2,8-diamine] |
| < 1 | < 1 |  |  | CN(C)S(=O)(=O)c1nnc(Nc2ccc3ncc(-c4cnn(C)c4)cc3n2)s1 [Example 0193, N,N-dimethyl-5-((7-(1-methyl-1H-pyrazol-4-yl)-1,5-naphthyridin-2-yl)amino)-1,3,4-thiadiazole-2-sulfonamide] |
|  |  | < 1 | < 1 | c1nnc(Nc2ccc3ncc(-c4cnn(CCCN5CCNCC5)c4)cc3n2)s1 [Example 0305, N-(7-(1-(3-(piperazin-1-yl)propyl)-1H-pyrazol-4-yl)-1,5-naphthyridin-2-yl)-1,3,4-thiadiazole-2-amine hydrochloride] |
| 1 to 10 | < 1 |  |  | COc1ccc(Nc2ccnc3ccc(Nc4nnc(C(C)C)s4)nc23)cc1 [Example 0013] |
|  |  | 1 to 10 | 1 to 10 | CC(C)c1nnc(Nc2ccc3nccc(-c4cnccn4)c3n2)s1 [Example 0282] |
|  |  | < 1 | < 1 | OCCc1nnc(Nc2ccc3ncc(-c4cnn(CCCN5CCCC5)c4)cc3n2)s1 [Example 0367] |
|  |  | < 1 | < 1 | Cn1cc(-c2cc3nc(Nc4nncs4)ccc3nc2N)cn1 [Example 0306, 7-(1-methyl-1H-pyrazol-4-yl)-N^2-(1,3,4-thiadiazol-2-yl)-1,5-naphthyridine-2,6-diamine] |
|  |  | < 1 | 1 to 10 | c1cc(Nc2cnc3ccc(Nc4nnc(C5CCCC5)s4)nc3c2)no1 [Example 0315, N^2-(5-cyclopentyl-1,3,4-thiadiazol-2-yl)-N^7-(isoxazol-3-yl)-1,5-naphthyridine-2,7-diamine] |
| < 1 | < 1 |  |  | CC(=O)N1CCC(Nc2cnc3ccc(Nc4nnc(C5CCCC5)s4)nc3c2)CC1 [Example 0063] |
| < 1 | 10 to 50 |  |  | CCOC(=O)C1CCCN(c2cnc3ccc(Nc4nnc(C5CCCC5)s4)nc3c2)C1 (centres unmarked) [Example 0056] |
|  |  | < 1 | < 1 | CC(=O)N1CC=C(c2cnc3ccc(Nc4nnc(C5CCCC5)s4)nc3c2)CC1 [Example 0334, 1-(4-(6-((5-cyclopentyl-1,3,4-thiadiazol-2-yl)amino)-1,5-naphthyridin-3-yl)-5,6-dihydropyridine-1(2H)-yl)ethanone] |
| < 1 | < 1 |  |  | CC(C)c1cnc(Nc2ccc3ncc(-c4cnn(CCCN5CCCC5)c4)cc3n2)s1 [Example 0119] |
|  |  | < 1 | < 1 | c1cc(Nc2cnc3ccc(Nc4nnc(C5CCCC5)s4)nc3c2)ccc1CN1CCOCC1 [Example 0221, N^2-(5-cyclopentyl-1,3,4-thiadiazol-2-yl)-N^7-(4-(morpholinomethyl)phenyl)-1,5-naphthyridine-2,7-diamine] |
|  |  | < 1 | < 1 | CC(C)c1nnc(Nc2ccc3nccc(-c4cccnc4)c3n2)s1 [Example 0268, 5-isopropyl-N-(8-(pyridin-3-yl)-1,5-naphthyridin-2-yl)-1,3,4-thiadiazole-2-amine] |
| < 1 | 1 to 10 |  |  | CC(C)c1cnnc(Nc2ccc3ncc(-c4cn[nH]c4)cc3n2)c1 [Example 0153] |
|  |  | 1 to 10 | < 1 | COc1cccc(Nc2cnc3ccc(Nc4nnc(C5CCCC5)s4)nc3c2)c1 [Example 0220, N^2-(5-cyclopentyl-1,3,4-thiadiazol-2-yl)-N^7-(3-methoxyphenyl)-1,5-naphthyridine-2,7-diamine] |
| < 1 | 1 to 10 |  |  | CN1CCN(c2cnc3ccc(Nc4nnc(C5CCCC5)s4)nc3c2)CCC1=O [Example 0064, 1-(6-((5-cyclopentyl-1,3,4-thiadiazol-2-yl)amino)-1,5-naphthyridin-3-yl)-4-methyl-1,4-diazepan-5-one hydrochloride] |
| < 1 | 1 to 10 |  |  | CN(C)CC(=O)N1CCN(c2cnc3ccc(Nc4nnc(C5CCCC5)s4)nc3c2)CC1 [Example 0059, 1-(4-(6-((5-cyclopentyl-1,3,4-thiadiazol-2-yl)amino)-1,5-naphthyridin-3-yl)piperazin-1-yl)-2-(dimethylamino)ethanone] |
|  |  | < 1 | < 1 | Nc1nnc(Nc2ccc3ncc(-c4cnn(CCN5CCOCC5)c4)cc3n2)s1 [Example 0254, N^2-(7-(1-(2-morpholinoethyl)-1H-pyrazol-4-yl)-1,5-naphthyridin-2-yl)-1,3,4-thiadiazole-2,5-diamine] |
|  |  | < 1 | < 1 | CC(C)c1cnnc(Nc2ccc3ncc(-c4cnn(Cc5ccncc5)c4)cc3n2)c1 [Example 0381] |
|  |  | < 1 | < 1 | c1nc2ccc(Nc3nnc(CC4CCCC4)s3)nc2cc1-c1cnn(CCCN2CCCC2)c1 [Example 0234] |
